From patent US20080090898A1, “Boosting immunity” (Mars, Incorporated, priority 2006, published 2008)

Key:
[1] = tested on: CD8 T cells; test: Cytokine production of isolated CD8 T cells activated with anti CD3; assay type: cell-based, human
Experimental: CD4+ and CD8+ cells were isolated by positive selection. Briefly, 10×10^7 PBMC cells in 90 μl were incubated with 10 μl of either anti-CD4+ or CD8+ magnetic reagent and incubated at 4° C. for a half hour. The cells were then separated by magnetic cell sorting using a Miltenyi Biotec system, were counted and diluted to a concentration of 2×10^6 cells/ml with BioWhittaker X Vivo. Autologous plasma from the subject was added to a concentration of 1% by volume. A 96 well plate was treated with antihuman-CD3 in PBS (BD Biosciences) at a concentration of 0.5 μg/ml for 4 hours. After the 4 hour incubation, the plate was washed 4 times with PBS. Purified CD4+ or CD8+ cells were added to each well along with various concentrations of the individual test compounds or controls. The cultures were then incubated at 37° C. for 1 day and supernatants were harvested and stored at −80° C. Cytokine profiles were determined using a BD Cytometric Bead Array Human Inflammation KIT (BD Biosciences, San Diego, Calif.). […] Wash buffer (300 μl) was added and samples immediately analyzed on the flow cytometer after vortexing. Known positive and negative samples and including a standard curve were included with each assay and all samples analyzed in triplicate. […] Cells were resuspended in 1.0 ml PBS/BSA and analyzed on the flow cytometer.

[2] = tested on: CD4 T cells; test: Cytokine production of isolated CD4 T cells activated with anti CD3; assay type: cell-based, human
Experimental: CD4+ and CD8+ cells were isolated by positive selection. Briefly, 10×10^7 PBMC cells in 90 μl were incubated with 10 μl of either anti-CD4+ or CD8+ magnetic reagent and incubated at 4° C. for a half hour. The cells were then separated by magnetic cell sorting using a Miltenyi Biotec system, were counted and diluted to a concentration of 2×10^6 cells/ml with BioWhittaker X Vivo. Autologous plasma from the subject was added to a concentration of 1% by volume. A 96 well plate was treated with antihuman-CD3 in PBS (BD Biosciences) at a concentration of 0.5 μg/ml for 4 hours. After the 4 hour incubation, the plate was washed 4 times with PBS. Purified CD4+ or CD8+ cells were added to each well along with various concentrations of the individual test compounds or controls. The cultures were then incubated at 37° C. for 1 day and supernatants were harvested and stored at −80° C. Cytokine profiles were determined using a BD Cytometric Bead Array Human Inflammation KIT (BD Biosciences, San Diego, Calif.). Briefly, 50 μl of culture supernates and standards were added to 100 μl of capture beads and detection reagent. Tubes were incubated for 3 hours at room temperature, washed with 1 ml of wash buffer and centrifuged prior to collection of the supernate. Wash buffer (300 μl) was added and samples immediately analyzed on the flow cytometer after vortexing. Known positive and negative samples and including a standard curve were included with each assay and all samples analyzed in triplicate. In addition, cultured cells (1×10^6) were washed in PBS with 0.1% bovine serum albumin (PBS/BSA), resuspended in 100 μl PBS/BSA, and incubated with anti-human CD3, CD19, CD69 and CD83 antibody for 1 hour at 4° C. Cells were resuspended in 1.0 ml PBS/BSA and analyzed on the flow cytometer.

COc1cc([C@H]2Oc3cc(O)cc(O)c3C[C@H]2O)ccc1O [3′-O-methyl-(−)-epicatechin]
IFN-γ amounts over the media controls [1]: significantly higher amounts | IFN-γ levels over media control and (−)-epicatechin treated cells [2]: significantly higher levels | IL-10 levels over media control and (−)-epicatechin treated cells [2]: significantly higher levels | TNF-α levels over media control and (−)-epicatechin treated cells [2]: significantly higher levels
